Test results: US20230220047A1, “PEPTIDES FOR TREATMENT OF SEPSIS AND CANCER” (NORWEGIAN UNIVERSITY OF SCIENCE AND TECHNOLOGY (NTNU), priority 2020, published 2023)

Tests used:
[1] = test system: TLR8; assay: Primary human macrophages stimulated with CL075: cytokine mRNA, Western blot, IRAK precipitations; format: cell-based; conditions: TLR8-stimulated cells, 15 μM, CL075 3 μg/ml
Experimental: (§1) Primary human macrophages (PBMC derived, differentiated in media with 10% human serum and M-CSF 20 ng/ml, 7 days) were stimulated with K12 LPS (100 ng/ml), FSL-1 (100 ng/ml) or CL075 (3 μg/ml). […] (B) qPCR for mRNA expression of IFNβ, IL-6, TNF and IL-1β, average for three biological replicates, error bars ±SD.
(§2) Primary human macrophages (7 days) were pre-treated with Pen or P7-Pen (15 μM) for 30 min before addition of LPS (100 ng/ml), FSL-1 (100 ng/ml) or CL075 (3 μg/ml). A: Protein expression in lysates for input control. B,C: Precipitations were performed using sheep anti-IRAK4 (B) or anti-IRAK1 (C) polyclonal antibodies covalently bound to magnetic beads.

[2] = test system: TLR4; assay: Western blot of LPS signalling in murine immortalized BMDMs; format: cell-based, mouse; conditions: murine macrophages, 10 μM
Experimental: Western blot analysis of lysates from cells pretreated with media containing controls (water, DMSO or 10 μM control peptide C3-Pen) or P7-Pen peptide for 30 min before stimulation with LPS (K12 LPS, 100 ng/ml) for designated time periods.
Protein pellets were dissolved by heating protein pellets for 10 min at 95° C. in buffer containing 4 M urea, 1 SDS (Sigma) and NuPAGE® LDS Sample Buffer (4×) (Thermo Fisher Scientific). Otherwise, lysates were made using 1× RIPA lysis buffer (150 mM NaCl, 50 mM TrisHCl (pH 7.5), 1% Triton X100, 5 mM EDTA, protease inhibitors, phosphatase inhibitors). For Western blot analysis we used pre-cast protein gels NuPAGE™ Novex™ and iBlot Transfer Stacks iBlot Gel Transfer Device (Thermo Fisher Scientific). Proteins were transferred to the membrane by dry-blotting using iBlot® 2 NC Regular/Mini Stacks (Life Technologies) in the iBlot 2 Dry Blotting System (Life Technologies). After secondary antibody incubation, membranes were washed and incubated with HRP substrate solution (SuperSignal™ West Femto Maximum Sensitivity Substrate (Thermo Fisher Scientific)). Images were taken using Odyssey® Fc (LI-CORE). Quantification graphs were generated by the analysis of signal intensities for protein bands (protein of interest and endogenous loading control—β-tubulin from the same membrane) using Odyssey software (LI-CORE). Data were normalised to the expression levels of β-tubulin and presented as a relative fold change to the control sample.
In addition, pre-treatment of murine macrophages with P7-Pen inhibited LPS-mediated phosphorylation of TBK1 and IκBα, and decreased phosphorylation of p38 MAPK (FIG. 23).

[3] = test system: TLR4; assay: Cytokine expression in primary human monocytes stimulated by LPS or E. coli particles; format: cell-based
Experimental: Use of human monocytes from blood donors was approved by the Regional Committees for Medical and Health Research Ethics at the Norwegian University of Science and Technology (NTNU). Human monocytes were isolated from buffy coats by adherence as previously described (Husebye et al., Immunity 33: 583-596, 2010). Briefly, freshly prepared buffy coat (The Blood Bank, St. Olav's Hospital, Trondheim, Norway) was diluted in 100 ml PBS, and PBMCs isolated by density gradient centrifugation using Lymphoprep (Axis-Shield) according to the manufacturer's instructions. […] Cells were counted using a Z2 Coulter Particle Count and Size Analyzer (Beckman Coulter) on program B, re-suspended in RPM11640 (Sigma) supplemented with 5% pooled human serum at a concentration of 8×10^6 per ml and seeded into 6-well (1 ml per well) or 24-well (0.5 ml per well) cell culture dishes. […] Total RNA was isolated from the cells using Qiazol reagent #79306 from QIAGEN, and chloroform extraction followed by purification on RNeasy Mini columns with DNAse digestion (Qiagen). cDNA was prepared using the Maxima First Strand cDNA Synthesis Kit for quantitative real-time polymerase chain reaction (RT-qPCR) (Thermo Fisher Scientific) according to the manufacturer's protocol. qPCR was performed using the PerfeCTa qPCR FastMix (Quanta Biosciences) in replicates and cycled in a StepOnePlusTM Real-Time PCR cycler. […]

[4] = test system: TLR2; assay: Primary human macrophages stimulated with FSL-1: cytokine mRNA, Western blot, IRAK precipitations; format: cell-based; conditions: primary human macrophages (data not shown)
Experimental: as §1, §2
The effect of P7-Pen on TLR2-mediated pro-inflammatory cytokine expression was investigated.

[5] = test system: primary human monocytes; assay: LDH cell viability in primary human monocytes; format: cell-based; conditions: compared to control peptides or P7-Pen

## Ac-ITVYASVTLTGRQIKIWFQNRRMKWKK-NH2 [Peptide P7-Pen]
[1]
  IRAK1 and IRAK4 recruitment to MyD88 at an early time point: inhibitory effect
  late recruitment of IRAKs or phosphorylation of p38 MAPKs: no effect
[2]
  LPS-mediated phosphorylation of TBK1 and IκBα: inhibited
[2]; LPS
  phosphorylation of p38 MAPK: decreased
[3]; 15 μM, 30 min pre-treatment, LPS 100 ng/ml, all tested donors
  IFNβ, TNF, IL-1β and IL-6 expression in response to TLR4 stimulation: significantly decreased
[3]; P7-Pen 15 μM vs P7-Arg11 10 μM
  reducing cytokine secretion by monocytes stimulated by E. coli particles: more effective than P7-Arg11
[4]
  expression of pro-inflammatory cytokines induced by TLR2/6 agonist FSL-1: no effect

## Ac-ITVYASVTLTGRRRRRRRRRRR-NH2 [Peptide P7-Arg11]
[5]
  basal toxicity: higher basal toxicity
